Measured values reported in patent US11110079B2, “Mebendazole polymorph for treatment and prevention of tumors” (THE JOHNS HOPKINS UNIVERSITY, priority 2015, dated 2021).
Entries after “also recorded” stand apart in the source; their conditions may differ. Read-outs that look alike come from different tables or passages of the source. One block for each molecule: values may come before it.

Legend:
GL261-luc glioma = settings: for difference in survival (Mantel-Cox test): GL261-luc glioma-bearing mice, 100 mg/kg oral gavage from day 5; for survival of GL261 glioma-bearing mice: other benzimidazoles, even at higher doses than MBZ; for mean survival: GL261 model, MBZ polymorphs 50 mg/kg oral
Procedure: All animal studies were approved by the Animal Care and Use Committee (ACUC) of the Johns Hopkins University. The intracranial implantation of GL261-luc in the frontal lobe and D425 cells in the cerebellum of the mouse brain followed the procedure described before (3,4). […] MBZ and other benzimidazoles were prepared by either mixing the power with PBS and sesame oil (1:1, v:v) (Sigma) or by grinding the tablets to powder and resuspending in the aforementioned PBS/sesame oil mixture. Elacridar was prepared as a 10 mg/ml suspension in 0.5% hydroxypropylmethylcellulose and 0.5% Tween 80 in PBS similarly as described before (15).
Animal survival data were analyzed by GraphPad Prism 5.0. The p-values were determined by a Mantel-Cox test. A p-value under 0.05 was accepted as statistically significant.

[1] = in vivo, po, 50 mg/kg
Procedure: (§1) Female C57BL6 mice, 5-6 weeks of age, were purchased from NCl. Animal experimentation was conducted under an approved IACUC protocol and complied with local and national guidelines. All MBZ polymorphs and tablets were administered by oral gavage at a dose of 50 mg/kg. Elacridar was administered by oral gavage at 50 mg/kg 2 hours prior to the administration of MBZ-C. Mice (3 animals/time point) were first anesthetized via intraperitoneal injection of 60 μl of a stock solution containing ketamine hydrochloride (75 mg/kg) (100 mg/ml; Ketamine HCl; Abbot Laboratories, Chicago, Ill., USA) and xylazine (7.5 mg/kg) (100 mg/ml; Xyla-ject®, Phoenix Pharmaceutical, St. Joseph, Mo., USA) in a sterile 0.9% NaCl solution. Then the blood samples were taken by puncturing and aspiring from the left heart ventricle. Blood samples were mixed with 5 mM EDTA and centrifuged at 10000 g for 5 min to obtain the plasma for further analysis.
(§2) Blood, brain and brain tumor tissues were harvested as a function of time after MBZ administration. To compare the pharmacokinetics of MBZ polymorphs, three cohorts of mice each were administered a single dose of 50 mg/kg by oral gavage. For the initial comparison studies, plasma samples were obtained at 1, 2.5, 4, 6, 8, 15, and 24 hours after MBZ administration while brain tissue was only collected at 6 hours. For the comparison studies of polymorph C with or without ELD, plasma and brain tissue samples were obtained at 2.5, 4, and 8 hours after MBZ administration. Brain tumor tissue samples were also obtained for polymorph C alone.
(§3) MBZ and the two metabolites, 2-amino-5-benzoyl-benzimidazole (MBZ-NH2, CAS 52329-60-9) and rac dihydro mebendazole (MBZ-OH, CAS 60254-95-7), were quantified in plasma, brain and brain tumor tissue. Tissue homogenates were prepared at a concentration of 200 mg/ml in plasma prior to extraction. Mebendazole and metabolites were extracted from 50 μl of plasma or tissue homogenates with 0.1 ml of methanol containing 0.5 μg/ml of the internal standard A620223.69. After centrifugation, the supernatant (60 μl) was mixed with water (40 μl) and then transferred into autosampler vials. […] The analytes were monitored using an AB Sciex triple quadrapole™ 5500 mass-spectrometric detector (Applied Biosystems, Foster City, Calif., USA) using electrospray ionization operating in positive mode. The spectrometer was programmed to allow the [MH+] ions of MBZ, MBZ-NH2, MBZ-OH, and A620223.69 at m/z 296.0, 238.0, 298.0, and 287.2, respectively to pass through the first quadrupole (Q1) and into the collision cell (Q2). The daughter ions for MBZ (m/z 263.9), MBZ-NH2 (m/z 105.1), MBZ-OH (m/z 266.0), and A620223.69 (m/z 124.1) were monitored through the third quadrupole (Q3). Calibration curves for MBZ and metabolites were computed using the area ratio peak of the analysis to the internal standard by using a quadratic equation with a 1/x weighting function over the range of 5 to 500 ng/ml (MBZ) and 1 to 500 ng/ml (metabolites) with dilutions of up to 1:100 (v:v). If one or more concentrations were below limits of quantification, a value of ½ the limit of quantification was assigned for pharmacokinetic calculations. If two consecutive time points were below limits of quantification, the last one was excluded from the analysis.
Mean plasma and brain concentrations were calculated at each time point for both MBZ and its metabolites. 1.045 g/ml was used as the average wet rodent brain tissue density (16). Pharmacokinetic parameters were calculated from mean MBZ and its metabolites concentration-time data using noncompartmental methods as analyzed in Phoenix® WinNonlin® version 6.3 (Pharsight Corp., Mountain View, Calif.). Cmax and Tmax were the observed values from the mean concentration data. The AUClast was calculated using the log-linear trapezoidal method. λz was determined from the slope of the terminal phase of the concentration-time profile. The terminal half-life (T1/2) was determined by dividing 0.693 by λz. […]

in vivo = settings: for mean B/P ratio: 6 h
Procedure: as §1
For brain distribution studies, mice were perfused under anesthesia with 20 ml ice-cold saline supplemented with 20 μl of 0.02% heparin by injecting slowly into the left heart ventricle using a 20 gauge needle. The right atrium was cut open before to allow the blood outflow. The yellow color of kidney indicated a good perfusion quality that was essential to deplete blood from the brain tissue. In GL261 tumor-bearing mice, GL261 tumor was distinguished from the normal brain by easily recognizable differences in color and shade. GL261 tumor was separated with a scalpel and the normal brain tissue was cut from the contralateral hemisphere. All brain samples were weighed and stored at −80° C. before processing.
as §2
as §3, with “calculations.” for “calculations. If two consecutive time points were below limits of quantification, the last one was excluded from the analysis.”

GL261 glioma cells = test: Cytotoxicity in cultured GL261 cells (colorimetric assay, 72 h); assay type: cell-based, mouse; settings: for cytotoxicity in GL261 cells: in vitro
Procedure: Cells were incubated with the indicated drugs for 72 h and the living cells were measured by the colorimetric assay.
(3,14) GL261 and D425 cells were maintained in DMEM media supplemented with 10% fetal bovine serum and antibiotics at 37° C. in humidified air containing 5% CO2.

D425 medulloblastoma = test: Orthotopic D425 medulloblastoma xenograft model (survival); assay type: in vivo, mouse; settings: D425 model, elacridar alone; marginal
Procedure: The intracranial implantation of GL261-luc in the frontal lobe and D425 cells in the cerebellum of the mouse brain followed the procedure described before (3,4). Five days after tumor implantation, mice were gavaged with MBZ or the other benzimidazoles at 50 mg/kg five days a week. MBZ and other benzimidazoles were prepared by either mixing the power with PBS and sesame oil (1:1, v:v) (Sigma) or by grinding the tablets to powder and resuspending in the aforementioned PBS/sesame oil mixture. Elacridar was prepared as a 10 mg/ml suspension in 0.5% hydroxypropylmethylcellulose and 0.5% Tween 80 in PBS similarly as described before (15).

[2] = female, C57BL6, mouse, po, 50 mg/kg

Compound: COC(=O)Nc1nc2cc([S+]([O-])c3ccccc3)ccc2[nH]1 (stereo not drawn) [oxifendazole]
- difference in survival (Mantel-Cox test) (GL261-luc glioma): not significant
- survival of GL261 glioma-bearing mice (GL261-luc glioma): failed or only marginally improved the survival

Compound: CCCSc1ccc2nc(NC(=O)OC)[nH]c2c1 [albendazole]
- survival of GL261 glioma-bearing mice (GL261-luc glioma): failed or only marginally improved the survival

Compound: COC(=O)Nc1nc2ccc(C(=O)c3ccccc3)cc2[nH]1 [MBZ-C, Mebendazole]
- mean survival (GL261-luc glioma): 48.5 days
- efficacy in GL261 glioma model (GL261-luc glioma; oral gavage 50 mg/kg, from day 5 after implantation, 50 mg/kg): best efficacy
- plasma AUC0-24 h ([1]; female, C57BL6, mouse): 16,039 h*ng/ml
- Kp (in vivo; female, C57BL6, mouse, AUC0-24h B/P ratio): 0.82
- brain Cmax, equivalent concentration (in vivo; female, C57BL6, mouse, po): 7.1 µM
- peak brain concentration (in vivo; [2]): 2,016 ng/g
- Kp at 8 h (in vivo; female, C57BL6, mouse, po, 50 mg/kg, brain/plasma (B/P) ratio on average): 0.75
- change of brain concentration of MBZ in terms of AUC0-8h (in vivo; mouse, po, 50 mg/kg): did not significantly change
- time of peak brain concentration after oral administration (in vivo; mouse, po, 50 mg/kg): Four
- cytotoxicity in GL261 cells (GL261 glioma cells): equal cytotoxicity

- plasma AUC0-24 h of metabolite ([1]; female, C57BL6, mouse): 10,516 h*ng/ml
- B/P ratio of MBZ-NH2 (in vivo; female, C57BL6, mouse): 0.12
- elevation of B/P ratio by co-administration of elacridar (in vivo; female, C57BL6, mouse): 2.5 folds
- elevation of AUC0-8 h by co-administration of elacridar (in vivo; mouse): 2.4 folds
- brain levels of metabolite in terms of Cmax and AUC0-24 h (in vivo; mouse, po, 50 mg/kg): much lower levels than MBZ-OH
Compound: Nc1nc2ccc(C(=O)c3ccccc3)cc2[nH]1 [MBZ-NH2, 2-amino-5-benzoyl-benzimidazole]
- distribution in GL261 brain tumor vs contralateral normal brain tissue (in vivo; [2]): preferentially accumulated in the GL261 brain tumor
- distribution in GL261 brain tumor vs contralateral normal brain tissue (in vivo; mouse, po, 50 mg/kg): significantly higher levels than in the contralateral brain
- cytotoxicity in GL261 cells (GL261 glioma cells): only a marginal cytotoxicity; also recorded: least cytotoxic

Compound: COc1cc2c(cc1OC)CN(CCc1ccc(NC(=O)c3cccc4c(=O)c5cccc(OC)c5[nH]c34)cc1)CC2 [elacridar]
- median survival (GL261-luc glioma; GL261, single agent 50 mg/kg, control 29.5 days): 34 days
- survival benefit (D425 medulloblastoma): 9 days
- IC50 (GL261 glioma cells; GL261 mouse glioma cells): 5.8 µM

Compound: COC(=O)Nc1nc2ccc(C(=O)c3ccccc3)cc2[nH]1 [MBZ-A, Mebendazole]
- plasma AUC0-24 h ([1]; female, C57BL6, mouse): 3,052 h*ng/ml
- plasma AUC0-24 h relative to MBZ-C ([1]; female, C57BL6, mouse): 19%
- mean B/P ratio (in vivo; [2]): 0.32
- cytotoxicity in GL261 cells (GL261 glioma cells): equal cytotoxicity

- plasma AUC0-24 h of metabolite ([1]; mouse): 5,781 h*ng/ml
Compound: COC(=O)Nc1nc2ccc(C(O)c3ccccc3)cc2[nH]1 (racemic) [MBZ-OH, rac dihydro mebendazole]

Compound: COC(=O)Nc1nc2ccc(Sc3ccccc3)cc2[nH]1 [fenbendazole]
- difference in survival (Mantel-Cox test) (GL261-luc glioma): not significant
- survival of GL261 glioma-bearing mice (GL261-luc glioma): failed or only marginally improved the survival

Compound: c1ccc2[nH]c(-c3cscn3)nc2c1 [thiabendazole, Thiabendazole]
- difference in survival (Mantel-Cox test) (GL261-luc glioma): not significant
- survival of GL261 glioma-bearing mice (GL261-luc glioma): failed or only marginally improved the survival

Compound: COC(=O)Nc1nc2cc(C(=O)c3ccc(F)cc3)ccc2[nH]1 [flubendazole]
- difference in survival (Mantel-Cox test) (GL261-luc glioma): not significant
- survival of GL261 glioma-bearing mice (GL261-luc glioma): failed or only marginally improved the survival

Compound: COC(=O)Nc1nc2ccc(C(=O)c3ccccc3)cc2[nH]1 [MBZ-B, Mebendazole]
- toxicity in GL261 glioma-bearing mice (GL261-luc glioma; 50 mg/kg oral): presumably died from drug toxicity
- treatment-related death among 6 treated mice (GL261-luc glioma; GL261 glioma-bearing mice, 50 mg/kg oral): 1
- mean survival (GL261-luc glioma): 45 days
- plasma AUC0-24 h ([1]; female, C57BL6, mouse): 26,474 h*ng/ml
- plasma AUC0-24 h relative to MBZ-C ([1]; female, C57BL6, mouse): 165%
- mean B/P ratio (in vivo; [2]): 0.64
- cytotoxicity in GL261 cells (GL261 glioma cells): equal cytotoxicity
